Assay results published in PubChem BioAssay (NCI).
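GI50 = concentration required for 50% inhibition of growth. TGI denotes the concentration required for complete inhibition of growth.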

Assays:
Experiment in all cases: NCI anticancer screen, dose series, 384-well format
NCI-H23 lung = test system: NCI-H23 lung
BT-549 breast = test system: BT-549 breast
KM12 colon = test system: KM12 colon
HL-60(TB) leukemia = test system: HL-60(TB) leukemia
MOLT-4 leukemia = test system: MOLT-4 leukemia
UO-31 renal = test system: UO-31 renal
SR leukemia = test system: SR leukemia
SF-539 CNS = test system: SF-539 CNS
UACC-257 melanoma = test system: UACC-257 melanoma
OVCAR-5 ovarian = test system: OVCAR-5 ovarian
MCF7 breast = test system: MCF7 breast
SN12C renal = test system: SN12C renal
HOP-62 NSCLC = test system: HOP-62 NSCLC
SW-620 colon = test system: SW-620 colon
COLO 205 colon = test system: COLO 205 colon
HS 578T breast = test system: HS 578T breast
RXF 393 renal = test system: RXF 393 renal
SNB-19 CNS = test system: SNB-19 CNS
SK-MEL-2 melanoma = test system: SK-MEL-2 melanoma
SF-268 CNS = test system: SF-268 CNS
NCI-H322M lung = test system: NCI-H322M lung
CAKI-1 renal = test system: CAKI-1 renal
786-0 renal = test system: 786-0 renal
MDA-MB-231 breast = test system: MDA-MB-231 breast
NCI-H226 lung = test system: NCI-H226 lung
PC-3 prostate = test system: PC-3 prostate
HT29 colon = test system: HT29 colon
SNB-75 CNS = test system: SNB-75 CNS
MDA-MB-435 melanoma = test system: MDA-MB-435 melanoma
EKVX NSCLC = test system: EKVX NSCLC
OVCAR-8 ovarian = test system: OVCAR-8 ovarian
M14 melanoma = test system: M14 melanoma
HOP-92 NSCLC = test system: HOP-92 NSCLC
OVCAR-3 ovarian = test system: OVCAR-3 ovarian
IGROV1 ovarian = test system: IGROV1 ovarian
K-562 leukemia = test system: K-562 leukemia
UACC-62 melanoma = test system: UACC-62 melanoma
DU-145 prostate = test system: DU-145 prostate
SF-295 CNS = test system: SF-295 CNS
NCI-H522 lung = test system: NCI-H522 lung
ACHN renal = test system: ACHN renal
U251 glioblastoma = test system: U251 glioblastoma
NCI-H460 NSCLC = test system: NCI-H460 NSCLC
A549 NSCLC = test system: A549 NSCLC
SK-MEL-28 melanoma = test system: SK-MEL-28 melanoma
HCT-116 colon = test system: HCT-116 colon
SK-MEL-5 melanoma = test system: SK-MEL-5 melanoma
HCT-15 colon = test system: HCT-15 colon
MDA-MB-468 breast = test system: MDA-MB-468 breast
T-47D breast = test system: T-47D breast
MALME-3M melanoma = test system: MALME-3M melanoma
SK-OV-3 ovarian = test system: SK-OV-3 ovarian
A498 renal = test system: A498 renal
TK-10 renal = test system: TK-10 renal
OVCAR-4 ovarian = test system: OVCAR-4 ovarian

For `CC(C)(C)C[C@H]1NC(C(=O)NCC[C@H](O)CO)[C@H](c2cccc(Cl)c2)[C@@]12C(=O)Nc1cc(Cl)c(F)cc12` (stereo not given in full), the GI50 (NCI-H23 lung) was 15 µM, the TGI (NCI-H23 lung) was 28.3 µM and the GI50 (BT-549 breast) was 15.1 µM. The TGI (BT-549 breast) was 28.5 µM, the GI50 (KM12 colon) was 1.6 µM and the TGI (KM12 colon) was 12.8 µM. The GI50 (HL-60(TB) leukemia) was 4.2 µM, the TGI (HL-60(TB) leukemia) was 16.5 µM and the GI50 (MOLT-4 leukemia) was 0.181 µM. The TGI (MOLT-4 leukemia) was 0.341 µM, the GI50 (UO-31 renal) was 4.29 µM and the TGI (UO-31 renal) was 15.9 µM. For the same molecule, the GI50 (SR leukemia) was 0.2 µM, the TGI (SR leukemia) was 0.394 µM and the GI50 (SF-539 CNS) was 13.4 µM. For the same molecule, the TGI (SF-539 CNS) was 26.3 µM, the GI50 (UACC-257 melanoma) was 1.76 µM and the TGI (UACC-257 melanoma) was 5.36 µM. The GI50 (OVCAR-5 ovarian) was 15.9 µM, the TGI (OVCAR-5 ovarian) was 29.5 µM and the GI50 (MCF7 breast) was 0.243 µM. It also gave a TGI (MCF7 breast) of 1.77 µM, a GI50 (SN12C renal) of 17.1 µM and a TGI (SN12C renal) of 30.9 µM. The GI50 (HOP-62 NSCLC) was 16.5 µM, the TGI (HOP-62 NSCLC) was 30.2 µM and the GI50 (SW-620 colon) was 16.8 µM. For the same molecule, the TGI (SW-620 colon) was 30.6 µM, the GI50 (COLO 205 colon) was 15.8 µM and the TGI (COLO 205 colon) was 29.3 µM. For the same molecule, the GI50 (HS 578T breast) was 6.45 µM, the TGI (HS 578T breast) was 20.4 µM and the GI50 (RXF 393 renal) was 2.38 µM. For the same molecule, the TGI (RXF 393 renal) was 15.3 µM, the GI50 (SNB-19 CNS) was 15.8 µM and the TGI (SNB-19 CNS) was 29.4 µM. The GI50 (SK-MEL-2 melanoma) was 14.6 µM, the TGI (SK-MEL-2 melanoma) was 27.7 µM and the GI50 (SF-268 CNS) was 16 µM. The TGI (SF-268 CNS) was 29.6 µM, the GI50 (NCI-H322M lung) was 17.5 µM and the TGI (NCI-H322M lung) was 31.4 µM. The GI50 (CAKI-1 renal) was 0.605 µM, the TGI (CAKI-1 renal) was 11.7 µM and the GI50 ([…]-0 renal) was 15.6 µM. It also gave a TGI (786-0 renal) of 29 µM, a GI50 (MDA-MB-231 breast) of 16.2 µM and a TGI (MDA-MB-231 breast) of 29.8 µM. For the same molecule, the GI50 (NCI-H226 lung) was 0.515 µM, the TGI (NCI-H226 lung) was 2.17 µM and the GI50 (PC-3 prostate) was 13.1 µM. It also gave a TGI (PC-3 prostate) of 25.9 µM, a GI50 (HT29 colon) of 15.8 µM and a TGI (HT29 colon) of 29.4 µM. For the same molecule, the GI50 (SNB-75 CNS) was 10.9 µM, the TGI (SNB-75 CNS) was 22.9 µM and the GI50 (MDA-MB-435 melanoma) was 14.6 µM. It also gave a TGI (MDA-MB-435 melanoma) of 27.8 µM, a GI50 (EKVX NSCLC) of 12.5 µM and a TGI (EKVX NSCLC) of 25 µM. The GI50 (OVCAR-8 ovarian) was 16.4 µM, the TGI (OVCAR-8 ovarian) was 30.1 µM and the GI50 (M14 melanoma) was 10.3 µM. The TGI (M14 melanoma) was 22.1 µM, the GI50 (HOP-92 NSCLC) was 14.7 µM and the TGI (HOP-92 NSCLC) was 27.8 µM. The GI50 (OVCAR-3 ovarian) was 13.7 µM, the TGI (OVCAR-3 ovarian) was 26.7 µM and the GI50 (IGROV1 ovarian) was 6.37 µM. It also gave a TGI (IGROV1 ovarian) of 20.2 µM, a GI50 (K-562 leukemia) of 13.7 µM and a TGI (K-562 leukemia) of 27 µM. For the same molecule, the GI50 (UACC-62 melanoma) was 0.591 µM, the TGI (UACC-62 melanoma) was 11.1 µM and the GI50 (DU-145 prostate) was 15.8 µM. The TGI (DU-145 prostate) was 29.4 µM, the GI50 (SF-295 CNS) was 12.9 µM and the TGI (SF-295 CNS) was 25.6 µM. The GI50 (NCI-H522 lung) was 12.8 µM, the TGI (NCI-H522 lung) was 25.5 µM and the GI50 (ACHN renal) was 1.36 µM. The TGI (ACHN renal) was 10.6 µM, the GI50 (U251 glioblastoma) was 14.4 µM and the TGI (U251 glioblastoma) was 27.6 µM. The GI50 (NCI-H460 NSCLC) was 14.6 µM, the TGI (NCI-H460 NSCLC) was 27.9 µM and the GI50 (A549 NSCLC) was 2.94 µM. For the same molecule, the TGI (A549 NSCLC) was 14.1 µM, the GI50 (SK-MEL-28 melanoma) was 16.7 µM and the TGI (SK-MEL-28 melanoma) was 30.4 µM. For the same molecule, the GI50 (HCT-116 colon) was 0.962 µM, the TGI (HCT-116 colon) was 13.8 µM and the GI50 (SK-MEL-5 melanoma) was 2.79 µM. The TGI (SK-MEL-5 melanoma) was 16.4 µM, the GI50 (HCT-15 colon) was 17.4 µM and the TGI (HCT-15 colon) was 31.5 µM. It also gave a GI50 (MDA-MB-468 breast) of 3.31 µM, a TGI (MDA-MB-468 breast) of 16.1 µM and a GI50 (T-47D breast) of 11.7 µM. The TGI (T-47D breast) was 24 µM, the GI50 (MALME-3M melanoma) was 0.582 µM and the TGI (MALME-3M melanoma) was 14.7 µM. The GI50 (SK-OV-3 ovarian) was 13.9 µM, the TGI (SK-OV-3 ovarian) was 27.1 µM and the GI50 (A498 renal) was 1.12 µM. For the same molecule, the TGI (A498 renal) was 11.7 µM, the GI50 (TK-10 renal) was 14.6 µM and the TGI (TK-10 renal) was 28.2 µM. The GI50 (OVCAR-4 ovarian) was 11.9 µM and the TGI (OVCAR-4 ovarian) was 24.3 µM.
